Converted amounts (≈) assume the structure as drawn. Where a name gives a salt, the structure may show the parent alone. Read-outs that look alike come from different tables or passages of the source.
Legend:
H. pylori [1] = experiment: IC50 against H. pylori, micro broth dilution test; type: cell-based, Helicobacter pylori; details: Helicobacter pylori, ATCC43504; H. pylori ATCC 43504, micro broth dilution, 72 h, OD 600 nm; read-out: IC50 value against H. pylori ± SEM
H. pylori [2] = experiment: MIC against H. pylori, agar dilution method; type: cell-based, Helicobacter pylori; details: Helicobacter pylori, ATCC43504; H. pylori ATCC 43504, agar dilution; read-out: MIC value against H. pylori ± SEM
Jack bean urease = biological target: T1, Jack bean urease (Canavalia ensiformis, UniProt P07374); experiment: biochemical; type: biochemical
T1 construct: purchased Sigma Aldrich
Procedure: Reaction mixture comprising 40 μL of buffer (K2HPO4: 10 mmol/L, urea: 100 mmol/L, […]: 10 mmol/L, EDTA: 1 /L mmol, pH = 8.2) and 5 U/mL enzyme (10 μL) were pre-incubated with 10 μL of synthesized compounds (1 mM) and substrate urea (1 mM) were incubated at room temperature in 96 well plate for half an hour. After the incubation at room temperature, absorbance was taken at specific wavelength (630 nm) employing a microplate reader (Bio-Tek, USA) with R1 and R2 reagents in each well. The reactions were measured in triplicate fashion. To calculate the inhibition percentage following equation was used.
Percentage inhibition = 100 –[tested compound/control compound] × 100.

Caco-2 A-B permeability = type: in vitro ADME; details: human, pH 6.5–7.4, test concentration = MIC against H. pylori (19-50 μM), reference drugs 10 μM
Procedure: The apparent permeability coefficient (Papp) of the test compound was calculated as follows: Papp(cm/s)=VR*CR,end/Δt*1/A*(CD,mid‐CR,mid) where VR is the volume of the receiver chamber. CR,end is the concentration of the test compound in the receiver chamber at the end time point, Δt is the incubation time and A is the surface area of the cell monolayer. CD,mid is the calculated mid-point concentration of the test compound in the donor side, which is the mean value of the donor concentration at time 0 minute and the donor concentration at the end time point. CR,mid is the mid-point concentration of the test compound in the receiver side, which is one half of the receiver concentration at the end time point. Concentrations of the test compound were expressed as peak areas of the test compound.
The recovery of the test compound was calculated as follows: Recovery(%)=VD*CD,end+VR*CR,end/VD*CD0*100 where VD and VR are the volumes of the donor and receiver chambers, respectively. CD,end is the concentration of the test compound in the donor sample at the end time point. CR,end is the concentration of the test compound in the receiver sample at the end time point. CD0 is the concentration of the test compound in the donor sample at time zero. Concentrations of the test compound are expressed as peak areas of the test compound.
Fluorescein was used as the cell monolayer integrity marker. Fluorescein permeability assessment (in the A-B direction at pH 7.4 on both sides) was executed after the permeability assay for the test compound.

T1 sequence (P07374 whole entry, looked up): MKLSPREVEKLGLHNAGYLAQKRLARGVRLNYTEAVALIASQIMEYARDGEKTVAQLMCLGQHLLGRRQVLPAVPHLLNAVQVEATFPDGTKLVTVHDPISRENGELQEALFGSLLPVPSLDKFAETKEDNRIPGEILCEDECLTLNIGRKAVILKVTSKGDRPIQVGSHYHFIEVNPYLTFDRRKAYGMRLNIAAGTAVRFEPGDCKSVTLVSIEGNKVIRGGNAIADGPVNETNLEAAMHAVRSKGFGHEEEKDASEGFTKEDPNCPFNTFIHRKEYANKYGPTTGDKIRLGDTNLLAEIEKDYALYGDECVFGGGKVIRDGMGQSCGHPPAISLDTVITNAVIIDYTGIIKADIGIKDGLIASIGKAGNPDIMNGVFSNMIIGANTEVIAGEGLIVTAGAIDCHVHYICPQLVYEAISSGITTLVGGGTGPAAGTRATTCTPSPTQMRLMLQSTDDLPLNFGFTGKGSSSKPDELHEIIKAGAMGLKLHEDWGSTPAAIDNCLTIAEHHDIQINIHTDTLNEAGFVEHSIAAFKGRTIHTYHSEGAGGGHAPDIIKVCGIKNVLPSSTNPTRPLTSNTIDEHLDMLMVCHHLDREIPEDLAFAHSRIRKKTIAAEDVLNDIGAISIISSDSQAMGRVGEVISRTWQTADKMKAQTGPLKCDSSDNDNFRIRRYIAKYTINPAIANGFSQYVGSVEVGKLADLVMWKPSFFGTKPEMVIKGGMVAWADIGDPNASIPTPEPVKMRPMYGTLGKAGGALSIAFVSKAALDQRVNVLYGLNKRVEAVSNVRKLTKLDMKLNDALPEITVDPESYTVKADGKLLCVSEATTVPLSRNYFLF

Compound | IC50 (H. pylori [1]) [µM] | melting point [°C] | MIC (H. pylori [2]) [µM] | IC50 (Jack bean urease) [µM] | Papp (Caco-2 A-B permeability) [×10⁻⁶ cm/s] | recovery (Caco-2 A-B permeability) [%] | IC50 (Jack bean urease; indophenol method, triplicate, thiourea positive control, read-out: Potency against urease IC50 ± SEM) [µM]
Cc1ccc(S(=O)(=O)Oc2cccc(-c3nc4sccn4c3-c3ccccc3)c2)cc1 [Compound 1g, 3-(5-Phenylimidazo[2,1-b]thiazol-6-yl)phenyl 4-methylbenzenesulfonate] | 37 ± 6 | 103 to 106 | 150 ± 29 (≈ 67 µg/mL) | 3.22 ± 0.06 |  |  | 
CS(=O)(=O)c1cccc(-c2c(-c3cccc(OS(N)(=O)=O)c3)nc3sccn23)c1 [Compound 2h, 3-(5-(3-(Methylsulfonyl)phenyl)imidazo[2,1-b]thiazol-6-yl)phenyl sulfamate] | 225 ± 5 | 150 to 153 | 400 (≈ 180 µg/mL) | 4.72 ± 0.13 |  |  | 
CNS(=O)(=O)Oc1cccc(-c2nc3sccn3c2-c2ccccc2)c1 [Compound 1i, 3-(5-Phenylimidazo[2,1-b]thiazol-6-yl)phenyl methylsulfamate] | 285 ± 92 | 161 to 164 | 800 (≈ 308 µg/mL) | 5.51 ± 0.17 |  |  | 
O=S(=O)(Oc1cccc(-c2nc3sccn3c2-c2ccccc2)c1)c1ccccc1 (as salt: benzenesulfonate) [Compound 1e, 3-(5-Phenylimidazo[2,1-b]thiazol-6-yl)phenyl benzenesulfonate] |  | 119 to 122 |  |  |  |  | 
CS(=O)(=O)c1cccc(-c2c(-c3cccc(OS(=O)(=O)c4ccccc4)c3)nc3sccn23)c1 (as salt: benzenesulfonate) [Compound 2e, 3-(5-(3-(Methylsulfonyl)phenyl)imidazo[2,1-b]thiazol-6-yl)phenyl benzenesulfonate] |  | 193 to 195 |  |  |  |  | 
O=S(=O)(Oc1cccc(-c2nc3sccn3c2-c2ccccc2)c1)c1ccc(F)cc1 [Compound 1f, 3-(5-Phenylimidazo[2,1-b]thiazol-6-yl)phenyl 4-fluorobenzenesulfonate] | 147 |  | 200 (≈ 90.1 µg/mL) | 5.17 ± 0.01 |  |  | 
CCS(=O)(=O)Oc1cccc(-c2nc3sccn3c2-c2ccccc2)c1 [Compound 1b, 3-(5-Phenylimidazo[2,1-b]thiazol-6-yl)phenyl ethanesulfonate] | 82 ± 29 | 119 to 121 | 800 | 4.01 ± 0.11 |  |  | 
O=S(=O)(Oc1cccc(-c2nc3sccn3c2-c2ccccc2)c1)c1ccc(F)cc1 (as salt: benzenesulfonate) [Compound 1f, 3-(5-Phenylimidazo[2,1-b]thiazol-6-yl)phenyl 4-fluorobenzenesulfonate] |  | 109 to 111 |  |  |  |  | 
CNS(=O)(=O)Oc1cccc(-c2nc3sccn3c2-c2cccc(S(C)(=O)=O)c2)c1 [Compound 2i, 3-(5-(3-(Methylsulfonyl)phenyl)imidazo[2,1-b]thiazol-6-yl)phenyl methylsulfamate] | 123 ± 15 | > 250 | 250 ± 50 (≈ 116 µg/mL) | 4.74 ± 0.21 |  |  | 
O=S(=O)(Oc1cccc(-c2nc3sccn3c2-c2ccccc2)c1)c1ccccc1 [Compound 1e, 3-(5-Phenylimidazo[2,1-b]thiazol-6-yl)phenyl benzenesulfonate] | 153 ± 33 |  | 400 | 4.3 ± 0.01 |  |  | 
CC(C)NCC(O)COc1cccc2ccccc12 (centres unmarked) [Propranolol, reference compound] |  |  |  |  | 39 ± 0.44 | 88.7 | 
CC(CCc1ccccc1)NCC(O)c1ccc(O)c(C(N)=O)c1 (centres unmarked) [Labetalol, reference compound] |  |  |  |  | 19.2 ± 0.56 | 99.1 | 
CS(=O)(=O)Oc1cccc(-c2nc3sccn3c2-c2cccc(S(C)(=O)=O)c2)c1 [Compound 2a, 3-(5-(3-(Methylsulfonyl)phenyl)imidazo[2,1-b]thiazol-6-yl)phenyl methanesulfonate] | 118 ± 5 | 159 to 160 | 250 ± 50 | 5.01 ± 0.03 |  |  | 
Cc1ccc(S(=O)(=O)Oc2cccc(-c3nc4sccn4c3-c3cccc(S(C)(=O)=O)c3)c2)cc1 [Compound 2g, 3-(5-(3-(Methylsulfonyl)phenyl)imidazo[2,1-b]thiazol-6-yl)phenyl 4-methylbenzenesulfonate] | 103 ± 88 | 172 to 174 | 275 ± 125 (≈ 144 µg/mL) | 5.59 ± 0.04 |  |  | 
CS(=O)(=O)c1cccc(-c2c(-c3cccc(OS(=O)(=O)c4ccc(F)cc4)c3)nc3sccn23)c1 (as salt: benzenesulfonate) [Compound 2f, 3-(5-(3-(Methylsulfonyl)phenyl)imidazo[2,1-b]thiazol-6-yl)phenyl 4-fluorobenzenesulfonate] |  | 103 to 105 |  |  |  |  | 
CS(=O)(=O)c1cccc(-c2c(-c3cccc(OS(=O)(=O)c4ccccc4)c3)nc3sccn23)c1 [Compound 2e, 3-(5-(3-(Methylsulfonyl)phenyl)imidazo[2,1-b]thiazol-6-yl)phenyl benzenesulfonate] | 331 ± 21 |  | 409 ± 391 | 5.21 ± 0.03 |  |  | 
CS(=O)(=O)c1cccc(-c2c(-c3cccc(OS(=O)(=O)N4CCCCC4)c3)nc3sccn23)c1 [Compound 2j, 3-(5-(3-(Methylsulfonyl)phenyl)imidazo[2,1-b]thiazol-6-yl)phenyl piperidine-1-sulfonate] | 288 ± 18 | 76 to 79 | 800 (≈ 414 µg/mL) | 5.82 ± 0.02 |  |  | 
CCCS(=O)(=O)Oc1cccc(-c2nc3sccn3c2-c2ccccc2)c1 [Compound 1c, 3-(5-Phenylimidazo[2,1-b]thiazol-6-yl)phenyl propane-1-sulfonate] | 364 | 120 to 123 | 800 (≈ 319 µg/mL) | 4.04 ± 0.09 |  |  | 
CCS(=O)(=O)Oc1cccc(-c2nc3sccn3c2-c2cccc(S(C)(=O)=O)c2)c1 [Compound 2b, 3-(5-(3-(Methylsulfonyl)phenyl)imidazo[2,1-b]thiazol-6-yl)phenyl ethanesulfonate] | 255 ± 35 | 206 to 209 | 800 | 4.97 ± 0.11 |  |  | 
NC(N)=S [thiourea, reference compound] |  |  |  |  |  |  | 22.3 ± 0.031
O=S(=O)(Oc1cccc(-c2nc3sccn3c2-c2ccccc2)c1)N1CCCCC1 [Compound 1j, 3-(5-Phenylimidazo[2,1-b]thiazol-6-yl)phenyl piperidine-1-sulfonate] | 131 ± 2 | 112 to 115 | 200 (≈ 87.9 µg/mL) | 6.97 ± 0.09 |  |  | 
